Experimental data from ChEMBL document CHEMBL1133369, “Synthesis and preliminary biological evaluation of [3H]-MRE 3008-F20: the first high affinity radioligand antagonist for the human A3 adenosine receptors” (Bioorg Med Chem Lett, 2000).
pKd: −log10 of the molar value.

Assays:
[1] = molecular target: T1, Adenosine receptor A3 (Homo sapiens) (UniProt P0DMS8); assay: Binding affinity against human AAdenosine A3 receptor in CHO cells; type: cell-based
T1 sequence (whole entry): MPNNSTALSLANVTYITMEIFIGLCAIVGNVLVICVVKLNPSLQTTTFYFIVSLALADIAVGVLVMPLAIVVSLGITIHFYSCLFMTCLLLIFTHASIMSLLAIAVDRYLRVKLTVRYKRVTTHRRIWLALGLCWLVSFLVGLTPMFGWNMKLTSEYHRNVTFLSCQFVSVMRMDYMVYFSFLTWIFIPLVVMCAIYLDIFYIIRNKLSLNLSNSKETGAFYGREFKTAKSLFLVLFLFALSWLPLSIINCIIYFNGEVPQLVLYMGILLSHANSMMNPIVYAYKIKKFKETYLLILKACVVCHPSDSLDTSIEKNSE

Adenosine receptor A3 = molecular target: T2, Adenosine receptor A3 (Homo sapiens, UniProt P0DMS8); assay: Binding affinity against human Adenosine A3 receptor in CHO cells; type: cell-based
T2 sequence (P0DMS8 whole entry): T1 sequence (whole entry)

Compound C=CCn1cc2c(nc(NC(=O)Nc3ccc(OC)cc3)n3nc(-c4ccco4)nc23)n1 has a Bmax [1] of 297 fmol/mg and a pKd (Adenosine receptor A3) of 9.09.
